Details: for mass density: 101.33 kPa, Liquid, Buoyancy - hydrostatic balance with magnetic suspension - one sinker

CCCCCCn1cc[n+](C)c1.[Br-] [3-hexyl-1-methyl-1H-imidazolium bromide]
surface tension liquid-gas [mN/m]
Details | Ring tensiometer | Wilhelmy Plate
288.65 K | 40.83 | –
293.93 K | 40.58 | –
298.48 K | 40.31 | –
303.39 K | 40.14 | –
303.45 K | – | 39.75
308.08 K | 39.96 | –
308.14 K | – | 39.56
313.4 K | 39.68 | –
313.41 K | – | 39.34
318.16 K | 39.45 | 39.12
323.29 K | – | 38.8
323.34 K | 39.07 | –
328.24 K | – | 38.58
328.26 K | 38.83 | –
333.84 K | 38.51 | –
333.86 K | – | 38.26
338.01 K | 38.31 | –
338.05 K | – | 38.08
343.05 K | 38.09 | –
343.07 K | – | 37.86
348.61 K | 37.8 | –
348.66 K | – | 37.51
352.53 K | 37.43 | –
352.73 K | – | 37.37
358.19 K | 37.28 | –
358.21 K | – | 37.02
360.12 K | 37.19 | –
360.23 K | – | 36.96

Details | mass density [kg/m3]
288.7 K | 1235.51
293.91 K | 1231.69
298.52 K | 1228.13
303.43 K | 1224.72
308.13 K | 1220.87
313.41 K | 1216.98
318.19 K | 1213.32
323.33 K | 1209.5
328.2 K | 1205.7
333.8 K | 1201.57
338.04 K | 1198.15
343.07 K | 1195.21
348.64 K | 1191.41
352.79 K | 1188.62
358.28 K | 1185.22
360.63 K | 1183.34

CCCCCCCn1cc[n+](C)c1.[Br-] [1-heptyl-3-methylimidazolium bromide]
Details | mass density [kg/m3]
288.61 K | 1204.51
293.46 K | 1200.12
298.41 K | 1196.78
303.25 K | 1193
308.21 K | 1189.59
313.68 K | 1184.48
318.07 K | 1180.84
323.13 K | 1177.36
328.04 K | 1173.42
333.16 K | 1169.7
338.28 K | 1165.8
342.93 K | 1162.61
348 K | 1159.27
353.15 K | 1155.57
358.44 K | 1151.81
361.83 K | 1149.33

surface tension liquid-gas [mN/m]
Details | Ring tensiometer | Wilhelmy Plate
313.61 K | 34.83 | 34.57
317.99 K | 34.5 | –
318.02 K | – | 34.35
323.11 K | 34.21 | –
323.13 K | – | 34.09
328.07 K | 34.3 | –
328.11 K | – | 33.89
333.19 K | 33.55 | –
333.24 K | – | 33.58
338.33 K | 33.25 | 33.3
341.81 K | 33.17 | –
341.91 K | – | 33.14
347.18 K | 33.07 | –
347.23 K | – | 32.89
353.09 K | 32.56 | –
353.14 K | – | 32.61
358.31 K | 32.41 | –
358.37 K | – | 32.4
361.72 K | 32.03 | –
361.8 K | – | 32.17

CCCCCCCCCn1cc[n+](C)c1.[Br-] [1-methyl-3-nonylimidazolium bromide]
Details | mass density [kg/m3]
293.53 K | 1151.11
298.66 K | 1147.53
303.27 K | 1143.87
308.55 K | 1140.39
313.46 K | 1136.5
318.04 K | 1132.93
323.21 K | 1129.22
327.91 K | 1125.75
333.09 K | 1122.06
338.45 K | 1118.47
342.75 K | 1115.49
348.28 K | 1112.09
353.51 K | 1108.37
358.3 K | 1105.2
361.69 K | 1103.16

surface tension liquid-gas [mN/m]
Details | Ring tensiometer | Wilhelmy Plate
298.64 K | 30.63 | –
303.27 K | 30.41 | –
303.28 K | – | 30.12
308.54 K | 30.17 | –
308.55 K | – | 29.91
313.44 K | 29.95 | 29.73
318.03 K | 29.77 | 29.54
323.2 K | 29.62 | –
323.23 K | – | 29.3
327.94 K | 29.41 | –
327.97 K | – | 29.1
333.09 K | 29.19 | –
333.11 K | – | 28.86
338.49 K | 28.72 | 28.59
342.76 K | 28.51 | –
342.8 K | – | 28.39
348.23 K | 28.46 | –
348.31 K | – | 28.18
352.32 K | 27.98 | –
352.4 K | – | 27.99
358.25 K | 27.94 | –
358.31 K | – | 27.75
361.6 K | 27.82 | –
361.68 K | – | 27.59

CCCCCCCCCCn1cc[n+](C)c1.[Br-] [1-decyl-3-methylimidazolium bromide]
Details | mass density [kg/m3]
298.41 K | 1128.2
303.45 K | 1124.55
308.2 K | 1121.27
313.5 K | 1117.38
318.29 K | 1113.91
322.96 K | 1110.37
327.96 K | 1106.69
333.59 K | 1102.59
337.76 K | 1099.91
343.08 K | 1095.88
348.29 K | 1092.59
352.96 K | 1089.23
358.48 K | 1085.6
361.87 K | 1083.32

Details | surface tension liquid-gas [mN/m]
303.38 K, Ring tensiometer | 28.04
303.43 K, Wilhelmy Plate | 27.64
308.15 K, Ring tensiometer | 27.97
313.47 K, Ring tensiometer | 27.73
318.26 K, Ring tensiometer | 27.54
322.99 K, Ring tensiometer | 27.14
323.02 K, Wilhelmy Plate | 26.87
328.01 K, Ring tensiometer | 27.01
328.08 K, Wilhelmy Plate | 26.65
332.75 K, Ring tensiometer | 26.87
332.76 K, Wilhelmy Plate | 26.45
337.48 K, Wilhelmy Plate | 26.22
338.06 K, Ring tensiometer | 26.74
343.15 K, Ring tensiometer | 26.07
343.19 K, Wilhelmy Plate | 25.97
347.35 K, Ring tensiometer | 26.14
347.47 K, Wilhelmy Plate | 25.82
352.46 K, Ring tensiometer | 25.77
352.93 K, Wilhelmy Plate | 25.57
358.38 K, Ring tensiometer | 25.28
358.41 K, Wilhelmy Plate | 25.36
361.45 K, Ring tensiometer | 25.51
361.5 K, Wilhelmy Plate | 25.22
